Source: ChEMBL document CHEMBL1201862, “PubChem BioAssay data set” (2004)
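Tested at 5 concentrations; 48 h exposure; 96-well plates; endpoints linearly interpolated, else capped at highest concentration. At the GI50, growth is halved.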 Calls of active or inactive are those of the source. Rule as the data show it: active = GI50 up to about 1.1 µM and inactive = higher.

Tests used:
Test in all cases: NCI tumour cell line growth inhibition, 48 h
ACHN = tested on: ACHN
COLO 205 = tested on: COLO 205
EKVX = tested on: EKVX
HCT-15 = tested on: HCT-15
HOP-62 = tested on: HOP-62
HOP-92 = tested on: HOP-92
HT-29 = tested on: HT-29
KM12 = tested on: KM12
NCI-H522 = tested on: NCI-H522
OVCAR-5 = tested on: OVCAR-5
RPMI-8226 = tested on: RPMI-8226
SF-295 = tested on: SF-295
SK-MEL-28 = tested on: SK-MEL-28
SN12C = tested on: SN12C
SNB-19 = tested on: SNB-19
SW-620 = tested on: SW-620
UACC-257 = tested on: UACC-257
UO-31 = tested on: UO-31
SNB-75 = tested on: SNB-75
CAKI-1 = tested on: CAKI-1

Row | SMILES | GI50 (ACHN) | GI50 (COLO 205) | GI50 (EKVX) | GI50 (HCT-15) [µM] | GI50 (HOP-62) | GI50 (HOP-92) | GI50 (HT-29) | GI50 (KM12) | GI50 (NCI-H522) | GI50 (OVCAR-5) | GI50 (RPMI-8226) | GI50 (SF-295) | GI50 (SK-MEL-28) | GI50 (SN12C) | GI50 (SNB-19) | GI50 (SW-620) | GI50 (UACC-257) | GI50 (UO-31) | GI50 (SNB-75) | GI50 (CAKI-1)
1 | COc1cc(Cc2ccc3c(c2C#N)N(C)c2ccccc2S3)cc(OC)c1OC | 41.4 µM (inactive) | 36.9 µM (inactive) | 40.8 µM (inactive) | 11 | 59.7 µM (inactive) | 48.5 µM (inactive) | 53.7 µM (inactive) | > 100 µM (inactive) | 34.7 µM (inactive) | > 100 µM (inactive) | 8.39 µM (inactive) | 7.53 µM (inactive) | > 100 µM (inactive) | 22.3 µM (inactive) | 53.5 µM (inactive) | > 100 µM (inactive) | 12.1 µM (inactive) | 30.9 µM (inactive) |  | 
2 | Cc1cc(NS(=O)(=O)c2ccc(NC(=O)c3cccc4c(Nc5ccc(S(N)(=O)=O)cc5)c5ccccc5nc34)cc2)no1 | > 100 µM (inactive) |  | 96.8 µM (inactive) | > 100 | > 100 µM (inactive) |  | > 100 µM (inactive) | 57 µM (inactive) | 41.6 µM (inactive) | > 100 µM (inactive) | 87.9 µM (inactive) |  | > 100 µM (inactive) | > 100 µM (inactive) | 97.3 µM (inactive) |  | > 100 µM (inactive) | 35.6 µM (inactive) | 60 µM (inactive) | 
3 | COc1cc([N+](=O)[O-])ccc1NC(=O)c1cccc([N+](=O)[O-])c1O | 12.6 µM (inactive) | 16 µM (inactive) | 29.1 µM (inactive) | 18.1 | 36.6 µM (inactive) |  | 25.5 µM (inactive) | 29.5 µM (inactive) | 11.6 µM (inactive) | 41.3 µM (inactive) | 10.3 µM (inactive) | 23.4 µM (inactive) | 21.6 µM (inactive) | 14.7 µM (inactive) | 41.5 µM (inactive) | 30.8 µM (inactive) | 17.8 µM (inactive) | 16.2 µM (inactive) | 21.1 µM (inactive) | 17 µM (inactive)
4 | Cc1cc2c(C)nn(Cc3ccc(Cl)cc3)c2c(C#N)c1C | > 100 µM (inactive) | > 100 µM (inactive) | > 100 µM (inactive) | > 100 | > 100 µM (inactive) | 35.6 µM (inactive) |  |  |  | > 100 µM (inactive) | > 100 µM (inactive) | 46.2 µM (inactive) | > 100 µM (inactive) | > 100 µM (inactive) | 63.5 µM (inactive) | > 100 µM (inactive) | > 100 µM (inactive) | > 100 µM (inactive) |  | 
5 | C=C(c1ccccc1)c1cc2c(=O)[nH]ccc2n1C | 35.7 µM (inactive) | 15.9 µM (inactive) | 39.4 µM (inactive) | 27.3 | 25 µM (inactive) | 14.2 µM (inactive) |  | 34.4 µM (inactive) | 16.3 µM (inactive) | 44.2 µM (inactive) | 24.7 µM (inactive) | 29.9 µM (inactive) | 44.7 µM (inactive) | 34.2 µM (inactive) | 48 µM (inactive) | 28.5 µM (inactive) | 37.1 µM (inactive) | 18.5 µM (inactive) | 11.9 µM (inactive) | 33.2 µM (inactive)
6 | O=C1OC(c2ccc(O)c(F)c2)(c2ccc(O)c(F)c2)c2cccc3cccc1c23 | > 25 µM (inactive) | 1.26 µM (inactive) | 5.12 µM (inactive) | > 25 | > 25 µM (inactive) | > 25 µM (inactive) | > 25 µM (inactive) | > 25 µM (inactive) |  | > 25 µM (inactive) | 17.2 µM (inactive) | 23.2 µM (inactive) | 0.0643 µM (active) | 1.34 µM (inactive) | > 25 µM (inactive) | > 25 µM (inactive) | > 25 µM (inactive) | > 25 µM (inactive) |  | 2.79 µM (inactive)
7 | N#CCCOCN(CO)c1nc(N(CO)COCCC#N)nc(N(CO)COCCC#N)n1 | 28.6 µM (inactive) | 18.4 µM (inactive) | 31.2 µM (inactive) | 18.2 | > 100 µM (inactive) | 23.4 µM (inactive) | 29.1 µM (inactive) | 33 µM (inactive) | 22.3 µM (inactive) | 35.2 µM (inactive) | 22.5 µM (inactive) | 21.7 µM (inactive) | 20.7 µM (inactive) | 20.4 µM (inactive) | 53.6 µM (inactive) | 16.1 µM (inactive) | 28 µM (inactive) | 21.7 µM (inactive) |  | 
8 | COCCOCOc1ccc(OCc2ccccc2)cc1 |  | > 100 µM (inactive) | > 55.7 µM (inactive) | > 100 | > 100 µM (inactive) | > 100 µM (inactive) | > 100 µM (inactive) | > 100 µM (inactive) |  | > 100 µM (inactive) | > 49.5 µM (inactive) | > 100 µM (inactive) | > 100 µM (inactive) | > 100 µM (inactive) | > 100 µM (inactive) | > 100 µM (inactive) | > 69.7 µM (inactive) | > 100 µM (inactive) |  | 2.25 µM (inactive)
